# Test results reported in patent US10975123B2, “Mutant Akt-specific capture agents, compositions, and methods of using and making” (California Institute of Technology, priority 2014, dated 2021).
# Entries after “also recorded” stand apart in the source; their conditions may differ. Where a SMILES comes first, the peptide text is derived from it. Bridges are numbered along the chain shown (N, C = ends). Roman numbers before positions name the chains, in order. Triazole bridges read from a SMILES are 1,4-linked. Where no end group is shown, it is not given here. [ ]: non-standard residue; d: D form. The star is where a group is joined. Biotin = O=C1N[C@H]2[C@H](CS[C@H]2CCCCC(=O)*)N1; Lys(N3) = [N-]=[N+]=NCCCC[C@H](N)C(=O)O; PEG6 = NCCOCCOCCOCCOCCOCCOCCC(=O)O; dPra = C#CC[C@@H](N)C(=O)O
# What was measured:
# [1] = target: T1, E17K GST-PH Domain (E17K Akt1) (Homo sapiens, UniProt P31749, E17K); experiment: Full curve ELISA, immobilized ligand, E17K protein; format: binding; conditions: in words
# T1 construct: The first 124 N-terminal amino acids from full length Akt1 were used as the PH Domain DNA; GST (N); thrombin cleavage site (C); 6His (C); made in house; host or cells: E. coli BL21-DE3-pLys
# T1 sequence (P31749 1-124 E17K): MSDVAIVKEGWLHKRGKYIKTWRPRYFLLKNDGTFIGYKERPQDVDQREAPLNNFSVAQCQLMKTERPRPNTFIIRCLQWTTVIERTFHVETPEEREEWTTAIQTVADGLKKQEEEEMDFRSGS
# Protocol: The full curve ELISAs were obtained using streptavidin coated ELISA plates (Pierce). The ligands—anchor, biligand, triligand and “eflya” scrambled anchor peptide blank—were laid down at a concentration of 1 μM for one hour. Two lanes of each ligand were used on the plate for both proteins—WT and E17K GST-PH Domain. The plates were blocked with 5% BSA for two hours. Dilutions of both WT and E17K GST-PH Domain proteins were made in 0.5% BSA in 1×TBS starting from 1 μM-0.5 nM by serially diluting 1:2 down a series of 8 samples. For each ligand, a no protein blank was also used. The proteins were incubated with the blocked plate for one hour, washed 3× with 1×TBST+0.5% BSA and tapped dry, then detected with a 1:10,000 dilution of an HRP conjugated anti-GST pAb. The plate was again washed 3× with 1×TBST and tapped dry. It was developed with a 1:1 solution of TMB substrate and development was stopped with 1M H2SO4 and read on a plate reader.
# WT GST-PH Domain (Akt1) = target: T2, WT GST-PH Domain (Akt1) (Homo sapiens, UniProt P31749); experiment: Full curve ELISA, immobilized ligand, WT protein; format: binding; conditions: in words
# T2 construct: The first 124 N-terminal amino acids from full length Akt1 were used as the PH Domain DNA; GST (N); thrombin cleavage site (C); 6His (C); made in house; host or cells: E. coli BL21-DE3-pLys
# T2 sequence (P31749 1-124): as the sequence (P31749 1-124 E17K) above, with K17E counted along it
# Protocol: The full curve ELISAs were obtained using streptavidin coated ELISA plates (Pierce). The ligands—anchor, biligand, triligand and “eflya” scrambled anchor peptide blank—were laid down at a concentration of 1 μM for one hour. Two lanes of each ligand were used on the plate for both proteins—WT and E17K GST-PH Domain. The plates were blocked with 5% BSA for two hours. Dilutions of both WT and E17K GST-PH Domain proteins were made in 0.5% BSA in 1×TBS starting from 1 μM-0.5 nM by serially diluting 1:2 down a series of 8 samples. For each ligand, a no protein blank was also used. The proteins were incubated with the blocked plate for one hour, washed 3× with 1×TBST+0.5% BSA and tapped dry, then detected with a 1:10,000 dilution of an HRP conjugated anti-GST pAb. The plate was again washed 3× with 1×TBST and tapped dry. It was developed with a 1:1 solution of TMB substrate and development was stopped with 1M H2SO4 and read on a plate reader. The curves in FIG. 4B were plotted by normalizing the signal by the blank wells, and were fitted to a Hill function in GraphPad using a common saturation and slope (Bmax=1.466+/−0.03, h=0.7383+/−0.025).
# [2] = target: T3, E17K PH Domain binding to PIP3 (Homo sapiens, UniProt P31749, E17K); experiment: PIP3 agarose inhibition assay, E17K; format: biochemical; conditions: ligand 2.38 μM (10x protein), protein 234 nM, western blot, in words
# T3 construct: 2 μg of either wildtype or mutant PH Domain-GFP protein (234 nM); made in house; host or cells: HEK-293-6E (used as cell lysate, not purified)
# T3 sequence (P31749 5-108 E17K limits assumed): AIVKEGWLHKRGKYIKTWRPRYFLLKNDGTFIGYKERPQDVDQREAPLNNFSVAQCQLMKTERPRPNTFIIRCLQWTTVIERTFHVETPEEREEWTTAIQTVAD
# Text: The yleaf ligand, the biligand, and the triligand were all tested for their ability to block the E17K PHD binding with PIP3. For this test, PIP3-coated resin (Echelon Biosciences) was used to mimic the PHD interaction with the cell membrane, and could be used to bind the protein as in an immunoprecipitation assay^22. The presence of an effective blocking compound would reduce the ability of the resin to capture the protein, and would thus appear as a diminished signal in the corresponding western blot assay. A control lane containing no capture agent was used to show baseline binding of the protein to the PIP3 resin. […] In an expanded study, we compared the amount of E17K and WT PH domain binding relative to the amount of added triligand (FIG. 5e).
# PIP3 Agarose beads (Echelon) were used to detect for the inhibition of PH Domain binding to its substrate, PIP3, upon incubation with the anchor candidate peptide ligands. To test the inhibition of each of the ligands, anchor biligand and triligand, 20 μL of resin slurry was added to each of four tubes and washed three times with 1×TBS. Protein, 2 μg (234 nM) of E17K mutant, was preincubated for one hour at room temperature with either DMSO (no protein blank), anchor, biligand or triligand at 2.38 μM (10× in relation to protein) in 200 μL of 1×TBS. For the control, mutant PH Domain was incubated with 1×TBS and 1 μL […] to mimic the ligand conditions. These protein samples were then added to PIP3 agarose in a Spin-X tube and incubated at room temperature for two hours. The resin was washed three times with 1×TBS with 0.25% IGEPAL CA-630, spun out to dry completely, then denatured with 50 μL 3×SDS gel loading buffer for 10 min at 95° C. The gel loading buffer was spun out of the resin and detected via western blot as per the Streptavidin-Agarose Pulldowns. Inhibition was indicated by a decrease in the amount of PH Domain that was pulled down by the resin.
# Expanded inhibition blots with either WT of E17K mutant protein were performed in a similar fashion. Twelve tubes of 20 μL of PIP3 agarose were washed three times with 1×TBS. 2 μg of either wildtype or mutant PH Domain-GFP protein (234 nM) in 200 uL 1×TBS were preincubated for 30 minutes with differing concentrations of triligand: 0.1 eq (23.4 nM), 1 eq (234 nM), 10 eq (2.34 μM), 100 eq (23.4 μM), and 1000 eq (234 μM). The protein and triligand solutions were then incubated with the PIP3 resin for 2 hours at room temperature. The resins were washed, eluted, and blotted as per all PH Domain western blots.
# [3] = target: T4, E17K mutant PH Domain (PHD) of Akt1 (Homo sapiens, UniProt P31749, E17K); experiment: Streptavidin-agarose immunoprecipitation (pulldown), E17K; format: binding; conditions: in words
# T4 construct: The first 124 N-terminal amino acids from full length Akt1 were used as the PH Domain DNA; made in house; host or cells: E. coli
# T4 sequence (P31749 1-124 E17K): as the sequence (P31749 1-124 E17K) above
# Protocol: (§1) Four biligand candidates were chosen based on their hydrophobicity and sequence homology using principal component analysis (FIG. 25). Biligands were synthesized by coupling the 2° ligand onto Rink Amide Resin on the Titan peptide synthesizer. The amide group on the end of the Lys(N3) was capped by shaking the resin with 2 mL acetic anhydride, 2 mL NMP and 0.5 mL DIEA for 3×10 minutes, then washed with NMP. FMOC-Propargylglycine-Otbu (Pra) was clicked onto the Lys(N3) on the 2° ligand by incubating 2 eq of the Pra amino acid with 2 eq CuI and 2 eq ascorbic acid with 1 eq azide on resin in 20% piperidine/NMP for 3 hours. The resin was washed 5×4 mL with a chelating solution of 1 g sodium diethyldithiocarbamate in 20 mL NMP and 1 mL DIEA. The anchor was then built onto the 2° ligand on bead, and an N-terminal PEG5-biotin tag were added. Assays were performed exactly as for the anchor ligands, except for two key differences. The biligand assays were done with 6 ug of GST-tagged PHD protein, instead of the untagged PHD that was used in the anchor pulldowns. The pull-downs were also conducted out of 1% serum in 1×TBS, as opposed to just 1×TBS.
# (§2) Pulldown assays were done on Streptavidin Agarose resin from Invitrogen. The resin was incubated with N-terminal biotinylated anchor peptide candidates identified via the ClusterLigand sequence analysis. The anchor candidate coated beads were then incubated with either the wildtype or mutant protein to compare the selectivity of the ligands, as well as the binding ability. The bound protein was eluted and western blotted to compare the amount of protein present for each sample.
# (§3) Relative protein band sizes were analyzed to compare binding between the anchor candidates and were used to determine selectivity for either wildtype or mutant PH Domain (FIG. 11). […] Both of these ligands look fairly selective for their respective PH Domain.
# [4] = target: T5, wildtype PH Domain (PHD) of Akt1 (Homo sapiens, UniProt P31749); experiment: Streptavidin-agarose immunoprecipitation (pulldown), WT; format: binding; conditions: in words
# T5 construct: The first 124 N-terminal amino acids from full length Akt1 were used as the PH Domain DNA; made in house; host or cells: E. coli
# T5 sequence (P31749 1-124): as the sequence (P31749 1-124 E17K) above, with K17E counted along it
# Protocol: as §1, §2, §3
# [5] = target: T6, E17K 33-mer fragment (6His-tagged) (Homo sapiens, UniProt P31749, E17K/H13K); experiment: HPLC-detected immunoprecipitation (pulldown), E17K 33-mer; format: binding; conditions: 50 μM epitope, overnight 4° C., guanidine elution, in words
# T6 construct: made in house; host or cells: chemical synthesis (Fmoc SPPS)
# T6 sequence (P31749 1-33 H13K/E17K limits assumed): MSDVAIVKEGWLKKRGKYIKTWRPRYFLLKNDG
# Text: The label-modified yleaf (SEQ ID NO: 43) peptide (FIG. 2a and FIG. 12) was subjected to a variety of binding assays against the synthesized WT and E17K 33-mer PHD fragments prepared without the biotin label and alkyne click handle. First, the yleaf (SEQ ID NO: 43) peptide was used in immunoprecipitation assays to pull-down either the WT or E17K mutant 6His-tagged (SEQ ID NO: 4) 33-mer peptide fragments (FIGS. 13 and 14), as opposed to the full-length proteins that were used to initially validate the candidates. Typical immunoprecipitation assays involve western blotting to estimate the amount of protein binding, but 33-mer peptide fragments are not easily quantified on a blot. Because of this, the amount of peptide epitope precipitated in these assays was quantified via injection on an analytical HPLC. These assays further confirmed preferential yleaf (SEQ ID NO: 43) ligand binding to the E17K 33-mer epitope relative to the WT epitope (FIG. 15).
# Pulldown assays with the biotinylated anchor and his-tagged 33-mer epitope were performed to verify epitope targeting. […] Because small peptide fragments like the 33-mer epitope are difficult to transfer to and detect on the nitrocellulose membrane as for a traditional Western blot, the amount of binding in these assays was detected via HPLC. […]
# [6] = 6 ug GST-tagged PHD, 1% serum in 1xTBS, western blot, listed as yleaf-yksy
# [7] = streptavidin agarose, 1xTBS, western blot band size
Molecule,change in binding affinity for the E17K protein versus the preceding ligand (ELISA) [1],change in binding affinity for the WT protein versus the preceding ligand (ELISA) (WT GST-PH Domain (Akt1)),inhibition of E17K PH Domain binding to PIP3-coated resin [2],inhibition of E17K PH Domain binding to PIP3-coated resin ([2]; listed as biligand 7),"pulldown of E17K GST-PHD by biligand candidates [3, 6]","pulldown of WT GST-PHD by biligand candidates [4, 6]","pulldown of E17K mutant PH Domain by biotinylated anchor candidates [3, 7]","pulldown of wildtype PH Domain by biotinylated anchor candidates [4, 7]",amount of E17K 33-mer fragment pulled down (HPLC peak) [5]
CC(=O)N[C@@H](CCCCn1cc(C[C@@H](NC(=O)[C@@H](Cc2ccccc2)NC(=O)[C@@H](C)NC(=O)[C@@H](CCC(=O)O)NC(=O)[C@@H](CC(C)C)NC(=O)[C@@H](Cc2ccc(O)cc2)NC(=O)CCOCCOCCOCCOCCOCCOCCNC(=O)CCCC[C@@H]2SC[C@@H]3NC(=O)N[C@@H]32)C(=O)O)nn1)C(=O)N[C@H](Cc1ccc(O)cc1)C(=O)N[C@H](CCCCN)C(=O)N[C@H](CO)C(=O)N[C@H](Cc1ccc(O)cc1)C(N)=O [biligand] (I: {Biotin-PEG6}-[dY][dL][dE][dA][dF][dPra]-OH / II: Ac-[Lys(N3)][dY][dK][dS][dY]-NH2; triazole I:6-II:1),an increase in affinity for the E17K mutant protein,an even larger increase in affinity for the WT protein,exhibited the ability to block the PHD-PIP3 interaction,decreased binding of the protein,the greatest signal in binding the E17K protein; also recorded: the highest signal for the E17K protein,the lowest in binding the WT protein; also recorded: the lowest off-target signal to the WT protein,,,
eefef ([dE][dE][dF][dE][dF]) [off-target control],,,,,,,the least pulldown for the mutant protein,the only pulldown of the wildtype protein,much less pull down than the yleaf
iryrn: triligand candidate: biligand yleaf-yksy with tertiary ligand iryrn (SEQ ID NO: 92) (IRYRN),a significant improvement on the binding affinity for the E17K protein,an even bigger increase for the WT protein,,,,,,,
